# Test results published in PubChem BioAssay AID2060508 (Molecular Pharmacology Branch, DTP, NCI, 2025).
# Test system: 454973-116-R2-J3-PDC spheroids, viability, % test/control
# Test: Anticancer human tumor 454973-116-R2-J3-PDC patient-derived pancreatic carcinoma cell line growth inhibition [GQUAD]
# Details: spheroids with HUVEC and MSC; for IC50: curve of first compound; for viability, T/C: stronger effect = lower value
# Outline: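 Tumor cells were grown as complex spheroids with HUVEC endothelial cells and mesenchymal stem cells as stroma. G-quadruplex stabilizers were combined with targeted agents over half-log dilutions from near the clinical Cmax, or from 10 microM.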
# [1] = second compound 0.0316 µM, first compound 0.0316 µM
# [2] = second compound 0.0316 µM, first compound 0.1 µM
# [3] = second compound 0.0316 µM, first compound 0.316 µM
# [4] = second compound 0.0316 µM, first compound 1 µM
# [5] = second compound 0.0316 µM, first compound 3.16 µM
# [6] = second compound 0.0316 µM, first compound 10 µM
# [7] = second compound 0.1 µM, first compound 0.0316 µM
# [8] = second compound 0.1 µM, first compound 0.1 µM
# [9] = second compound 0.1 µM, first compound 0.316 µM
# [10] = second compound 0.1 µM, first compound 1 µM
# [11] = second compound 0.1 µM, first compound 3.16 µM
# [12] = second compound 0.1 µM, first compound 10 µM
# [13] = second compound 0.316 µM, first compound 0.0316 µM
# [14] = second compound 0.316 µM, first compound 0.1 µM
# [15] = second compound 0.316 µM, first compound 0.316 µM
# [16] = second compound 0.316 µM, first compound 1 µM
# [17] = second compound 0.316 µM, first compound 3.16 µM
# [18] = second compound 0.316 µM, first compound 10 µM
# [19] = second compound 1 µM, first compound 0.0316 µM
# [20] = second compound 1 µM, first compound 0.1 µM
# [21] = second compound 1 µM, first compound 0.316 µM
# [22] = second compound 1 µM, first compound 1 µM
# [23] = second compound 1 µM, first compound 3.16 µM
# [24] = second compound 1 µM, first compound 10 µM
# [25] = second compound 3.16 µM, first compound 0.0316 µM
# [26] = second compound 3.16 µM, first compound 0.1 µM
# [27] = second compound 3.16 µM, first compound 0.316 µM
# [28] = second compound 3.16 µM, first compound 1 µM
# [29] = second compound 3.16 µM, first compound 3.16 µM
# [30] = second compound 3.16 µM, first compound 10 µM
# [31] = second compound 10 µM, first compound 0.0316 µM
# [32] = second compound 10 µM, first compound 0.1 µM
# [33] = second compound 10 µM, first compound 0.316 µM
# [34] = second compound 10 µM, first compound 1 µM
# [35] = second compound 10 µM, first compound 3.16 µM
# [36] = second compound 10 µM, first compound 10 µM
# 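Note: spheroids exposed to compounds for seven days.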
# 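Throughout, for viability, T/C: 100% = DMSO vehicle control viability.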
smiles,measurement,setting,value
CC(=O)O[C@H]1C(=O)[C@@]2(C)[C@H]([C@H](OC(=O)c3ccccc3)[C@]3(O)C[C@H](OC(=O)[C@H](O)[C@@H](NC(=O)c4ccccc4)c4ccccc4)C(C)=C1C3(C)C)[C@]1(OC(C)=O)CO[C@@H]1C[C@@H]2O + Cc1cnc(CNC(=O)c2c(=O)c3ccc(N4CCCN(C)CC4)nc3n3c2sc2ccccc23)cn1,IC50,second compound 0.0316 µM,< 31.6 nM
same,IC50,second compound 0.1 µM,< 31.6 nM
same,IC50,second compound 0.316 µM,< 31.6 nM
same,IC50,second compound 1 µM,< 31.6 nM
same,IC50,second compound 3.16 µM,< 31.6 nM
same,IC50,second compound 10 µM,< 31.6 nM
same,"viability, T/C",[1],17.2%
same,"viability, T/C",[2],12.7%
same,"viability, T/C",[3],10.7%
same,"viability, T/C",[4],7.9%
same,"viability, T/C",[5],9.07%
same,"viability, T/C",[6],11.3%
same,"viability, T/C",[7],20.6%
same,"viability, T/C",[8],16.3%
same,"viability, T/C",[9],9.56%
same,"viability, T/C",[10],9.77%
same,"viability, T/C",[11],11.2%
same,"viability, T/C",[12],15.5%
same,"viability, T/C",[13],27.5%
same,"viability, T/C",[14],17.2%
same,"viability, T/C",[15],17.9%
same,"viability, T/C",[16],15.7%
same,"viability, T/C",[17],15.3%
same,"viability, T/C",[18],19.6%
same,"viability, T/C",[19],33.9%
same,"viability, T/C",[20],28.3%
same,"viability, T/C",[21],23.3%
same,"viability, T/C",[22],25.7%
same,"viability, T/C",[23],24.8%
same,"viability, T/C",[24],30.4%
same,"viability, T/C",[25],42.4%
same,"viability, T/C",[26],36.2%
same,"viability, T/C",[27],32.1%
same,"viability, T/C",[28],26.5%
same,"viability, T/C",[29],34.1%
same,"viability, T/C",[30],37.1%
same,"viability, T/C",[31],0.12%
same,"viability, T/C",[32],1.08%
same,"viability, T/C",[33],0.19%
same,"viability, T/C",[34],0.17%
same,"viability, T/C",[35],0.19%
same,"viability, T/C",[36],0.21%
CC1COCCN1c1cc(C2(O)CC3CCC(C2)O3)c2cnn(-c3ccn[nH]3)c2n1 (centres undefined) + Cc1[nH]c2ccc(F)cc2c1-c1nc2c3cccnc3c3ncccc3c2[nH]1,IC50,second compound 0.0316 µM,155 nM
same,IC50,second compound 0.1 µM,141 nM
same,IC50,second compound 0.316 µM,163 nM
same,IC50,second compound 1 µM,140 nM
same,IC50,second compound 3.16 µM,143 nM
same,IC50,second compound 10 µM,115 nM
same,"viability, T/C",[1],95.9%
same,"viability, T/C",[2],62.1%
same,"viability, T/C",[3],29.9%
same,"viability, T/C",[4],21.7%
same,"viability, T/C",[5],24.1%
same,"viability, T/C",[6],12.3%
same,"viability, T/C",[7],87%
same,"viability, T/C",[8],58.9%
same,"viability, T/C",[9],28.9%
same,"viability, T/C",[10],21.3%
same,"viability, T/C",[11],21.8%
same,"viability, T/C",[12],10.4%
same,"viability, T/C",[13],91.6%
same,"viability, T/C",[14],66.4%
same,"viability, T/C",[15],27.7%
same,"viability, T/C",[16],20%
same,"viability, T/C",[17],21.6%
same,"viability, T/C",[18],13.5%
same,"viability, T/C",[19],93.5%
same,"viability, T/C",[20],58.1%
same,"viability, T/C",[21],30.6%
same,"viability, T/C",[22],19.9%
same,"viability, T/C",[23],21.8%
same,"viability, T/C",[24],13.2%
same,"viability, T/C",[25],88.5%
same,"viability, T/C",[26],58.3%
same,"viability, T/C",[27],31.7%
same,"viability, T/C",[28],21.8%
same,"viability, T/C",[29],21.6%
same,"viability, T/C",[30],12.6%
same,"viability, T/C",[31],79.5%
same,"viability, T/C",[32],53.6%
same,"viability, T/C",[33],26.2%
same,"viability, T/C",[34],22.4%
same,"viability, T/C",[35],20.3%
same,"viability, T/C",[36],12.6%
